Assay results published in patent US9499485B2, “Compounds that are S1P modulating agents and/or ATX modulating agents” (BIOGEN MA INC., priority 2012, dated 2016).

Assays:
[1] = target: T1, Human ATX protein (Homo sapiens, UniProt Q13822); test: ATX biochemical FRET assay with FS-3 substrate; details: FS-3 2 μM, ATX 1.0 μg/mL, binned table, read-out: IC50 (μm)
T1 construct: made in house
Excerpt: ATX (Autotaxin) is a 125 KDa glycoprotein with lysophospholipase D (LPLD) activity that generates the bioactive lipid lysophosphatidic acid (LPA) from lysophosphatidylcholine (LPC). The ATX biochemical assay utilizes a FRET (fluorescence resonance energy transfer) technology platform. The fluorescence signal of FRET substrate FS-3 is quenched due to intra-molecular FRET of a fluorophore to a non-fluorescing quencher (Ferguson, C. G., et al., Org. Lett. 2006 May 11; 8(10): 2023-2026, which is incorporated by reference in its entirety). ATX catalyzes the hydrolysis of the substrate which separates the dabsyl quencher from the fluorescein reporter, which becomes fluorescent. The reaction is monitored by a SpectraMax M5 (Molecular Devices, Sunnyvale, Calif.) with at excitation wavelength 485 nm and emission wavelength 535 nm.
2×ATX assay buffer: 100 mM Tris, 280 mM NaCl, 10 mM KCl, 2 mM CaCl2, 2 mM MgCl2, pH 7.4.
Human ATX protein: expressed and purified in house. Stored at −80° C.
Substrate FS-3 (Echelon, L-2000): 100 μg in 77.74 μL H2O (1 mM stock), stored at −20° C.
Compound dilution—All compounds were provided at 10 mM in 100% DMSO. In the first well, 2 μL of 10 mM compound was added to 78 μL of DMSO (1:40 dilution). In subsequent wells 3-fold dilution (total 10 dilutions) were performed.
1×ATX assay buffer was made up with a final concentration of 1 mg/mL fatty acid free-BSA using 2×ATX assay buffer, 10 mg/ml fatty acid free-BSA and ddH2O.
ATX protein was diluted with 1×ATX assay buffer to a concentration of 1.32 μg/mL (1.32×). 38 μL was added per well to the assay plate. The final concentration of ATX in the reaction as 1.0 μg/mL.
2 μL per well of compounds was transferred to provide the desired concentration. The plate was centrifuged, then incubated at room temperature for 30 minutes on the shaker.
FS-3 was diluted with 1×ATX assay buffer to a concentration of FS-3 of 10 μM (5×). Then, 10 μL was added per well to the assay plate. The final concentration of FS-3 in the reaction was 2 μM. The plate was centrifuged. The plate was kept shaking at room temperature for 2 hours. Because FS-3 substrate is light sensitive, plates were kept covered and protected from light.
Fluorescence was measured using SpectraMax M5 (excitation at 485 nm/emission at 538 nm, top read).

[2] = target: T2, human S1P4 (Homo sapiens, UniProt O95977); test: S1P receptor calcium flux assay, antagonist format (S1P4 antagonist activity); type: cell-based; details: calcium mobilization, recombinant CHEM cells expressing human S1P4, stimulated with EC80 of reference agonist
T2 construct: host or cells: recombinant CHEM cells
T2 sequence (O95977 1-384): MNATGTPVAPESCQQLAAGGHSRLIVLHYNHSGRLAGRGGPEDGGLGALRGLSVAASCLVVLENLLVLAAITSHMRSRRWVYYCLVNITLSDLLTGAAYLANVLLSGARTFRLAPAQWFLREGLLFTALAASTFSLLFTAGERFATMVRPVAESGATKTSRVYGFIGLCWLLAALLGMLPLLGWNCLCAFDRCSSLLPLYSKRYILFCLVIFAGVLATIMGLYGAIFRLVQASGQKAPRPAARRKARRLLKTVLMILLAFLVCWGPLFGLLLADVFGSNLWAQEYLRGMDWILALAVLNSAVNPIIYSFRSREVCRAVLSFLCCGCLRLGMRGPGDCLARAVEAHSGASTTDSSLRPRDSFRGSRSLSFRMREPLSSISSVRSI
Experimental: Compounds that are not specific for a particular S1P receptor can cause undesirable side effects. Accordingly, compounds are tested to identify those that are specific. Accordingly, the test compounds are tested in a calcium mobilization assay/S1P receptor activity assay. The procedure is essentially as described in Davis et al. (2005) Journal of Biological Chemistry, vol. 280, pp. 9833-9841, which is incorporated by reference in its entirety with the following modifications. Calcium mobilization assays are performed in recombinant CHEM cells expressing human S1P1, S1P2, S1P3, S1P4, or S1P5 purchased from Millipore (Billerica, Mass.). To detect free intracellular calcium, S1P1, S1P2, S1P3, S1P4, or S1P5 cells are loaded with FLIPR Calcium 4 dye from Molecular Devices (Sunnyvale, Calif.). Cells are imaged for calcium mobilization using a FLIPR^TETRA equipped with a 96-well dispense head.
Agonist percentage activation determinations were obtained by assaying sample compounds and referencing the Emax control for each receptor profiled. Antagonist percentage inhibition determinations were obtained by assaying sample compounds and referencing the control EC80 wells for each receptor profiled.
Sample compounds were plated in an eight-point, four-fold dilution series in duplicate with a top concentration of 10 μM. The concentrations described here reflect the final concentration of the compounds during the antagonist assay. During the agonist assay the compound concentrations were 1.25 fold higher to allow for the final desired concentration to be achieved with further dilution by EC80 of reference agonists during the antagonist assay.
Reference agonists were handled as mentioned above serving as assay control. The reference agonists were handled as described above for Emax.
Assay was read for 180 seconds using the FLIPR^TETRA (This assay run added sample compounds and reference agonist to respective wells). At the completion of the first “Single Addition” assay run, assay plate was removed from the FLIPR^TETRA and placed at 25° C. for seven (7) minutes.
Using the EC80 values determined during the agonist assay, stimulated all pre-incubated sample compound and reference antagonist (if applicable) wells with EC80 of reference agonist. Read for 180 seconds using the FLIPR^TETRA (This assay added reference agonist to respective wells—then fluorescence measurements were collected to calculate percentage inhibition values).

Compound | IC50 [1] | IC50 [2]
O=C(O)C[C@H]1CCCN(Cc2cccc3ccc(O[C@H]4CC[C@@H](C(F)(F)F)CC4)c(C(F)(F)F)c23)C1 [Example 28, 2-((R)-1-((8-(trifluoromethyl)-7-((cis-4-(trifluoromethyl)cyclohexyl)oxy)naphthalen-1-yl)methyl)piperidin-3-yl)acetic acid] | 0.5 to 5 µM | 
CC(C)(C)[C@H]1CC[C@H](Oc2ccc3cccc(CN4CCC(C(=O)O)CC4)c3c2)CC1 [Example 29, 1-((7-((trans-4-(tert-butyl)cyclohexyl)oxy)naphthalen-1-yl)methyl)piperidine-4-carboxylic acid] | > 5 µM | ≤ 5 µM
CC(C)(C)[C@H]1CC[C@H](Oc2ccc3c(CN4CCC(C(=O)O)CC4)cccc3c2)CC1 [Example 31, 1-((6-((trans-4-(tert-butyl)cyclohexyl)oxy)naphthalen-1-yl)methyl)piperidine-4-carboxylic acid] |  | ≤ 5 µM
CC(C)(C)[C@H]1CC[C@H](Oc2ccc3c(CN4CCC(CC(=O)O)CC4)cccc3c2)CC1 [Example 33, 2-(1-((6-((trans-4-(tert-butyl)cyclohexyl)oxy)naphthalen-1-yl)methyl)piperidin-4-yl)acetic acid] | > 5 µM | ≤ 5 µM

The remaining lines, values ahead:

IC50 [1] | IC50 [2] | Compound
> 5 µM | ≤ 5 µM | CCCCCCCOc1ccc2cccc(CN3CCC(C(=O)O)CC3)c2c1 [Example 30, 1-((7-(heptyloxy)naphthalen-1-yl)methyl)piperidine-4-carboxylic acid]
> 5 µM | ≤ 5 µM | CCCCCCCOc1ccc2c(CN3CCC(C(=O)O)CC3)cccc2c1 [Example 32, 1-((6-(heptyloxy)naphthalen-1-yl)methyl)piperidine-4-carboxylic acid]
> 5 µM | ≤ 5 µM | CCCCCCCOc1ccc2c(CN3CCC(CC(=O)O)CC3)cccc2c1 [Example 34, 2-(1-((6-(heptyloxy)naphthalen-1-yl)methyl)piperidin-4-yl)acetic acid]
